{"source": "patent EP0791591B1", "about": "“Benzothiophenes, formulations containing same, and methods for their préparation” (ELI LILLY AND COMPANY, priority 1996, dated 1997)", "key": {"Serum cholesterol": {"test_system": "Serum cholesterol", "assay": "Serum cholesterol analysis in ovariectomized rats", "format": "in vivo, Sprague Dawley rats", "conditions": "oral, daily for 4 days, decrease versus ovariectomized controls", "quoted_text": "(§1) Seventy-five day old female Sprague Dawley rats (weight range of 200 to 225g) are obtained from Charles River Laboratories (Portage, MI). The animals are either bilaterally ovariectomized (OVX) or exposed to a Sham surgical procedure at Charles River Laboratories, and then shipped after one week. Upon arrival, they are housed in metal hanging cages in groups of 3 or 4 per cage and have ad libitum access to food (calcium content approximately 0.5%) and water for one week. Room temperature is maintained at 22.2° ± 1.7° C with a minimum relative humidity of 40%. The photoperiod in the room is 12 hours light and 12 hours dark.\n(§2) Dosing Regimen Tissue Collection. After a one week acclimation period (therefore, two weeks post-OVX) daily dosing with test compound is initiated. 17α-ethynyl estradiol or the test compound is given orally, unless otherwise stated, as a suspension in 1% carboxymethylcellulose or dissolved in 20% cyclodextrin. Animals were dosed daily for 4 days. Following the dosing regimen, animals are weighed and anesthetized with a ketamine: Xylazine (2:1, V:V) mixture and a blood sample is collected by cardiac puncture. The animals are then sacrificed by asphyxiation with CO2, the uterus is removed through a midline incision, and a wet uterine weight is determined.\nCholesterol Analysis. Blood samples are allowed to clot at room temperature for 2 hours, and serum is obtained following centrifugation for 10 minutes at 3000 rpm. Serum cholesterol is determined using a Boehringer Mannheim Diagnostics high performance cholesterol assay. Briefly the cholesterol is oxidized to cholest-4-en-3-one and hydrogen peroxide. The hydrogen peroxide is then reacted with phenol and 4-aminophenazone in the presence of peroxidase to produce a p-quinone imine dye, which is read spectrophotemetrically at 500 nm. Cholesterol concentration is then calculated against a standard curve. The entire assay is automated using a Biomek Automated Workstation."}, "ovariectomized rats [1]": {"test_system": "ovariectomized rats", "assay": "Osteoporosis Test Procedure: 35-day ovariectomized rat, femur density", "format": "in vivo, Sprague Dawley rats", "conditions": "oral, in 20% hydroxypropyl β-cyclodextrin, daily for 35 days; result in words", "description": "Following the General Preparation Procedure, infra, the rats are treated daily for 35 days (6 rats per treatment group) and sacrificed by carbon dioxide asphyxiation on the 36th day. The 35 day time period is sufficient to allow maximal reduction in bone density, measured as described herein. At the time of sacrifice, the uteri are removed, dissected free of extraneous tissue, and the fluid contents are expelled before determination of wet weight in order to confirm estrogen deficiency associated with complete ovariectomy. […] The uteri are then placed in 10% neutral buffered formalin to allow for subsequent histological analysis. The right femurs are excised and digitilized x-rays generated and analyzed by an image analysis program (NIH image) at the distal metaphysis. The proximal aspect of the tibiae from these animals are also scanned by quantitative computed tomography. In accordance with the above procedures, compounds of the present invention and ethynyl estradiol (EE2) in 20% hydroxypropyl β-cyclodextrin are orally administered to test animals."}, "[2]": {"test_system": "Uterine Eosinophil Peroxidase (EPO)", "assay": "Uterine Eosinophil Peroxidase (EPO) Assay in ovariectomized rats", "conditions": "for Uterine Eosinophil (Vmax): oral, daily for 4 days, eosinophil peroxidase Vmax", "quoted_text": "as §1, §2\n(§3) Uterine Eosinophil Peroxidase (EPO) Assay. Uteri are kept at 4° C until time of enzymatic analysis. The uteri are then homogenized in 50 volumes of 50 mM Tris buffer (pH - 8.0) containing 0.005% Triton X-100. Upon addition of 0.01% hydrogen peroxide and 10 mM O-phenylenediamine (final concentrations) in Tris buffer, increase in absorbance is monitored for one minute at 450 nm. The presence of eosonophils in the uterus is an indication of estrogenic activity of a compound. The maximal velocity of a 15 second interval is determined over the initial, linear portion of the reaction curve."}, "ovariectomized rats [3]": {"test_system": "ovariectomized rats", "assay": "Uterine weight in ovariectomized rat post-menopausal model, 4 days oral dosing", "conditions": "daily for 4 days, increase versus ovariectomized controls", "quoted_text": "as §1, §2"}, "[4]": {"test_system": "MCF-7 breast adenocarcinoma cells (ATCC HTB 22)", "assay": "MCF-7 Proliferation Assay (tritiated thymidine)", "format": "cell-based", "conditions": "Homo sapiens, MCF7; MCF-7 cells, 48 hours with drug, tritiated thymidine pulse 4 hours", "description": "MCF-7 breast adenocarcinoma cells (ATCC HTB 22) are maintained in MEM (minimal essential medium, phenol red-free, Sigma, St. Louis, MO) supplemented with 10% fetal bovine serum (FBS) (V/V), L-glutamine (2 mM), sodium pyruvate (1 mM), HEPES {(N-[2-hydroxyethyl]piperazine-N'-[2-ethanesulfonic acid]10 mM}, non-essential amino acids and bovine insulin (1 ug/mL) (maintenance medium). Ten days prior to assay, MCF-7 cells are switched to maintenance medium supplemented with 10% dextran coated charcoal stripped fetal bovine serum (DCC-FBS) assay medium) in place of 10% FBS to deplete internal stores of steroids. MCF-7 cells are removed from maintenance flasks using cell.dissociation medium (Ca++/Mg++ free HBSS (phenol red-free) supplemented with 10 mM HEPES and 2 mM EDTA). Cells are washed twice with assay medium and adjusted to 80,000 cells/mL. Approximately 100 µL (8,000 cells) are added to flat-bottom microculture wells (Costar 3596) and incubated at 37° C in a 5% CO2 humidified incubator for 48 hours to allow for cell adherence and equilibration after transfer. Serial dilutions of drugs or DMSO as a diluent control are prepared in assay medium and 50 µL transferred to triplicate microcultures followed by 50 µL assay medium for a final volume of 200 µL. […] Samples are counted by liquid scintillation using a Wallac BetaPlace β counter. […]"}, "[5]": {"test_system": "Uterine Eosinophil Peroxidase (EPO)", "conditions": "rat, in vivo", "quoted_text": "as §1, §2, §3"}, "physchem": {"assay": "physchem", "conditions": "66% dmf"}}, "note": "Like-named read-outs stand apart in the source and are kept apart here. Marks after values point to notes of the source that are not given here.", "data": [{"compound": "C#C[C@]1(O)CC[C@H]2[C@@H]3CCc4cc(O)ccc4[C@H]3CC[C@@]21C", "note": "[EE2, 17α-ethynyl estradiol, reference compound]", "values": [{"measurement": "Serum Cholest. % Dec.", "setting": "Serum cholesterol; 0.1 mg/kg", "value": "87.3* %"}, {"measurement": "bone loss (femur density)", "setting": "ovariectomized rats [1]", "value": "prevented this loss"}, {"measurement": "Uterine Eosinophil (Vmax)", "setting": "[2]; 0.1 mg/kg", "value": "205.8*"}, {"measurement": "eosinophil infiltration into the uterus", "setting": "[2]; result in words, stromal layer of ovariectomized rat uteri", "value": "substantial and expected increase"}, {"measurement": "Uterine Weight % Inc", "setting": "ovariectomized rats [3]; 0.1 mg/kg", "value": "207.5* %"}]}, {"compound": "O=C(c1ccc(OCC[N+]2([O-])CCCCC2)cc1)c1c(-c2ccc(O)cc2)sc2cc(O)ccc12", "note": "[Example 1, [2-(4-Hydroxyphenyl)-6-hydroxybenzo[b]thien-3-yl][4-[2-(1-piperidinyl)ethoxy]phenyl]methanone N-oxide]", "values": [{"measurement": "Serum Cholest. % Dec.", "setting": "Serum cholesterol; 0.1 mg/kg", "value": "44.9* %"}, {"measurement": "Serum Cholest. % Dec.", "setting": "Serum cholesterol; 1.0 mg/kg", "value": "68.7* %"}, {"measurement": "Serum Cholest. % Dec.", "setting": "Serum cholesterol; 10.0 mg/kg", "value": "70.3* %"}, {"measurement": "IC50", "setting": "[4]", "value": "~1", "unit": "µM"}, {"measurement": "pKa", "setting": "pKa determination; 66% dmf", "value": 6.28}, {"measurement": "Uterine Eosinophil (Vmax)", "setting": "[2]; 0.1 mg/kg", "value": 4.4}, {"measurement": "Uterine Eosinophil (Vmax)", "setting": "[2]; 1.0 mg/kg", "value": 4.6}, {"measurement": "Uterine Eosinophil (Vmax)", "setting": "[2]; 10.0 mg/kg", "value": 2.5}, {"measurement": "Uterine Weight % Inc", "setting": "ovariectomized rats [3]; 0.1 mg/kg", "value": "31.2* %"}, {"measurement": "Uterine Weight % Inc", "setting": "ovariectomized rats [3]; 1.0 mg/kg", "value": "29.6* %"}, {"measurement": "Uterine Weight % Inc", "setting": "ovariectomized rats [3]; 10.0 mg/kg", "value": 8.3, "unit": "%"}]}, {"compound": "COc1ccc(-c2sc3cc(OC)ccc3c2C(=O)c2ccc(OCC[N+]3([O-])CCCCC3)cc2)cc1", "note": "[Example 2]", "values": [{"measurement": "Serum Cholest. % Dec.", "setting": "Serum cholesterol; 1.0 mg/kg", "value": "65.7* %"}, {"measurement": "Uterine Eosinophil (Vmax)", "setting": "[5]", "value": 11.2}, {"measurement": "pKa", "setting": "physchem", "value": 6.39}]}, {"compound": "CC[N+]([O-])(CC)CCOc1ccc(C(=O)c2c(-c3ccc(O)cc3)sc3cc(O)ccc23)cc1", "note": "[Example 3, [2-(4-Hydroxyphenyl)-6-hydroxybenzo[b]thien-3-yl][4-[2-(N, N-diethyl)ethoxy]phenyl]methanone N-oxide]", "values": [{"measurement": "Serum Cholest. % Dec.", "setting": "Serum cholesterol; 1.0 mg/kg", "value": "64.2* %"}, {"measurement": "Uterine Eosinophil (Vmax)", "setting": "[5]", "value": "21.7*"}, {"measurement": "pKa", "setting": "physchem", "value": 6.15}]}, {"compound": "O=C(c1ccc(OCC[N+]2([O-])CCOCC2)cc1)c1c(-c2ccc(O)cc2)sc2cc(O)ccc12", "note": "[Example 4, [2-(4-Hydroxyphenyl)-6-hydroxybenzo[b]thien-3-yl][4-[2-(1-morpholino)ethoxy]phenyl]methanone N-oxide]", "values": [{"measurement": "Serum Cholest. % Dec.", "setting": "Serum cholesterol; 1.0 mg/kg", "value": "56.2* %"}, {"measurement": "Uterine Eosinophil (Vmax)", "setting": "[5]", "value": 4.1}]}, {"compound": "[O-][N+]1(CCOc2ccc(C(O)c3c(-c4ccc(O)cc4)sc4cc(O)ccc34)cc2)CCCCC1", "note": "(stereo not shown) [Example 6]", "values": [{"measurement": "pKa", "setting": "pKa determination", "value": 6.41}]}, {"compound": "[O-][N+]1(CCOc2ccc(Cc3c(-c4ccc(O)cc4)sc4cc(O)ccc34)cc2)CCCCC1", "note": "[Example 7, [2-(4-Hydroxyphenyl)-6-hydroxybenzo[b]thien-3-yl][4-[2-(1-piperidinyl)ethoxy]phenyl]methane N-oxide]", "values": [{"measurement": "pKa", "setting": "pKa determination", "value": 6.49}]}, {"compound": "[2-(4-n-Butylsulfonoylphenyl)-6-n-butylsulfonoylbenzo[b]thien-3-yl][4-[2-(1-piperidinyl)ethoxy]phenyl]methanone N-oxide [Example 5]", "values": [{"measurement": "Serum Cholest. % Dec.", "setting": "Serum cholesterol; 1.0 mg/kg", "value": "74.9* %"}, {"measurement": "Uterine Eosinophil (Vmax)", "setting": "[5]", "value": 4.7}]}]}
